Source: ChEMBL document CHEMBL4483862, “Open-source discovery of chemical leads for next-generation chemoprotective antimalarials” (2018)

System: Plasmodium berghei
Assay: Luciferase/luciferin-expressing antifolate-resistant parasites were used to infect a culture of HepG2 cells that were pre-incubated with compounds. Infected hepatocytes emit light due to the luciferase reaction. Assay results are presented as the percent inhibition of light emission compared to control. […]
Format: functional
Conditions: sporozoite; for IC90: read-out: LUCIFERASE INFECTION ASSAY - IC90

Row | SMILES | IC90 [µM] | other results
1 | Cc1nn(CC(C)C)c(Cl)c1C(=O)Nc1nc(-c2ccccn2)cs1 | 3.35 | IC50 (HEPG2TOX_HILL_SLOPE 0.847, HEPG2TOX_R_SQUARED 0.93, PBLUC_HILL_SLOPE 12, PBLUC_R_SQUARED 0.706, read-out: LUCIFERASE INFECTION ASSAY - IC50): 2.79 µM
2 | Cc1ccccc1-c1cn2c(-c3ccc4c(c3)OCO4)cnc2cn1 | 0.821 | IC50 (HEPG2TOX_HILL_SLOPE 0.84, HEPG2TOX_R_SQUARED 0.902, PBLUC_HILL_SLOPE 1.93, PBLUC_R_SQUARED 0.734, read-out: LUCIFERASE INFECTION ASSAY - IC50): 0.263 µM
3 | Cc1nn(-c2ccc(C(F)(F)F)cn2)c2ncc(CCCO)cc12 | > 10 | IC50 (HEPG2TOX_HILL_SLOPE 0.869, HEPG2TOX_R_SQUARED 0.0884, read-out: LUCIFERASE INFECTION ASSAY - IC50): > 10 µM
4 | CC(C)Oc1ccc(-c2nc3c4c5c(sc4ncn3n2)CN(C)CC5)cc1 | > 8.7 | IC50 (HEPG2TOX_HILL_SLOPE 0.881, HEPG2TOX_R_SQUARED 0.629, PBLUC_HILL_SLOPE 9.03, PBLUC_R_SQUARED 0.277, read-out: LUCIFERASE INFECTION ASSAY - IC50): 8.35 µM
5 | O=C1C=C/C(=N\Nc2ccccc2C(F)(F)F)c2cccnc21 | 1.31 | IC50 (HEPG2TOX_HILL_SLOPE 0.86, HEPG2TOX_R_SQUARED 0.964, PBLUC_HILL_SLOPE 13.8, PBLUC_R_SQUARED 0.7, read-out: LUCIFERASE INFECTION ASSAY - IC50): 1.12 µM
6 | CC(C)n1ncc2cc(C(=O)Nc3ccc4oc5ccccc5c4c3)cnc21 | 6.74 | IC50 (HEPG2TOX_HILL_SLOPE 0.893, HEPG2TOX_R_SQUARED 0.928, PBLUC_HILL_SLOPE 1.69, PBLUC_R_SQUARED 0.728, read-out: LUCIFERASE INFECTION ASSAY - IC50): 1.84 µM
7 | COC(=O)c1c(C)[nH]c(C(=O)N2CCCN(Cc3ccc(C(F)(F)F)cc3)CC2)c1C | 3.51 | IC50 (HEPG2TOX_HILL_SLOPE 0.883, HEPG2TOX_R_SQUARED 0.94, PBLUC_HILL_SLOPE 33.9, PBLUC_R_SQUARED 0.31, read-out: LUCIFERASE INFECTION ASSAY - IC50): 3.29 µM
8 | O=C(c1cnn(C(=O)c2nn(-c3ccc(Cl)cc3)cc2O)c1)c1ccccc1O | 3.83 | IC50 (HEPG2TOX_HILL_SLOPE 0.890, 1.11, HEPG2TOX_R_SQUARED 0.813, 0.357, PBLUC_HILL_SLOPE 9.04, 15.6, PBLUC_R_SQUARED 0.0255, 0.659, read-out: LUCIFERASE INFECTION ASSAY - IC50): 3.15 µM
9 | Cc1ccc(O)c(C(=O)NCC(C)c2ccccc2)c1 (centres undefined) | 9.34 | IC50 (HEPG2TOX_HILL_SLOPE 0.817, HEPG2TOX_R_SQUARED 0.794, PBLUC_HILL_SLOPE 3.45, PBLUC_R_SQUARED 0.175, read-out: LUCIFERASE INFECTION ASSAY - IC50): 4.94 µM
10 | COc1ccccc1N1CCN(c2ncnc3sc(C)c(-c4ccc(F)cc4)c23)CC1 | > 10 | IC50 (HEPG2TOX_HILL_SLOPE 0.826, HEPG2TOX_R_SQUARED 0.707, read-out: LUCIFERASE INFECTION ASSAY - IC50): > 10 µM
11 | CC(C)NC(=O)c1c(NC(=O)c2cc(F)c(Cl)cc2F)nc2ccccn12 | 1.42 | IC50 (HEPG2TOX_HILL_SLOPE 0.89, HEPG2TOX_R_SQUARED 0.947, PBLUC_HILL_SLOPE 3.47, PBLUC_R_SQUARED 0.71, read-out: LUCIFERASE INFECTION ASSAY - IC50): 0.755 µM
12 | N#CC(C#N)=NNc1ccc(F)cc1F | > 16 | IC50 (HEPG2TOX_HILL_SLOPE 0.862, HEPG2TOX_R_SQUARED 0.0964, read-out: LUCIFERASE INFECTION ASSAY - IC50): > 16 µM
13 | CC(C)CN1CCC1(C(=O)Nc1ccncc1)c1ccccc1 (centres undefined) | 6.57 | IC50 (HEPG2TOX_HILL_SLOPE 0.888, HEPG2TOX_R_SQUARED 0.951, PBLUC_HILL_SLOPE 1.36, PBLUC_R_SQUARED 0.753, read-out: LUCIFERASE INFECTION ASSAY - IC50): 1.31 µM
14 | CC(=O)Nc1ccc(NC(=O)C2=COC3=NC(=O)N(Cc4ccccc4C)CCN23)cc1 | > 10 | IC50 (HEPG2TOX_HILL_SLOPE 0.88, HEPG2TOX_R_SQUARED 0.892, PBLUC_HILL_SLOPE 1, PBLUC_R_SQUARED 0.725, read-out: LUCIFERASE INFECTION ASSAY - IC50): 4.16 µM
15 | Cc1cc(C)nc(-n2[nH]c3[nH]c(-c4cccc5ccccc45)cc(=O)c3c2=O)n1 | 1.99 | IC50 (HEPG2TOX_HILL_SLOPE 0.872, HEPG2TOX_R_SQUARED 0.686, PBLUC_HILL_SLOPE 1.74, PBLUC_R_SQUARED 0.695, read-out: LUCIFERASE INFECTION ASSAY - IC50): 0.566 µM
16 | C=CCNC(=S)N1N=C2/C(=C/c3ccc(OCC)cc3)CCCC2C1c1ccc(OCC)cc1 (centres undefined) | > 10 | IC50 (HEPG2TOX_HILL_SLOPE 0.856, HEPG2TOX_R_SQUARED 0.318, PBLUC_HILL_SLOPE 2.55, PBLUC_R_SQUARED 0.497, read-out: LUCIFERASE INFECTION ASSAY - IC50): 4.45 µM

Row | SMILES | IC90 [µM] | other results
17 | CC(Sc1nc(-c2ccccc2)c(-c2ccccc2)o1)C(=O)NCc1ccco1 (centres undefined) | 8.62 | IC50 (HEPG2TOX_HILL_SLOPE 0.891, HEPG2TOX_R_SQUARED 0.604, PBLUC_HILL_SLOPE 2.26, 2.77, PBLUC_R_SQUARED 0.745, 0.857, read-out: LUCIFERASE INFECTION ASSAY - IC50): 5.29 µM
18 | Cc1ccc(-c2cs/c(=N\CCN3CCOCC3)n2/N=C/c2cccs2)cc1C | > 10 | IC50 (HEPG2TOX_HILL_SLOPE 0.856, HEPG2TOX_R_SQUARED 0.317, read-out: LUCIFERASE INFECTION ASSAY - IC50): > 10 µM
19 | C/C(=N\NC(=O)c1ccc(C(F)(F)F)cc1)c1ccccc1O | 3.38 | IC50 (HEPG2TOX_HILL_SLOPE 0.838, HEPG2TOX_R_SQUARED 0.996, PBLUC_HILL_SLOPE 3.61, PBLUC_R_SQUARED 0.312, read-out: LUCIFERASE INFECTION ASSAY - IC50): 1.84 µM
20 | Cc1cc(SC(C)C(=O)N(Cc2ccccc2)Cc2ccccc2)nc2ccccc12 (centres undefined) | > 10 | IC50 (HEPG2TOX_HILL_SLOPE 0.863, HEPG2TOX_R_SQUARED 0.817, read-out: LUCIFERASE INFECTION ASSAY - IC50): > 10 µM
21 | COc1ccc(/C=C/c2ccc3c(Cl)cc(Cl)c(O)c3n2)cc1 | 0.43 | IC50 (HEPG2TOX_HILL_SLOPE 0.83, HEPG2TOX_R_SQUARED 0.868, PBLUC_HILL_SLOPE 16.3, PBLUC_R_SQUARED 0.735, read-out: LUCIFERASE INFECTION ASSAY - IC50): 0.375 µM
22 | O=C(Nc1ccc(Br)c(C(F)(F)F)c1)c1ccc(N2CCOCC2)nc1 | > 10 | IC50 (HEPG2TOX_HILL_SLOPE 0.861, HEPG2TOX_R_SQUARED 0.877, PBLUC_HILL_SLOPE 1.11, PBLUC_R_SQUARED 0.718, read-out: LUCIFERASE INFECTION ASSAY - IC50): 1.48 µM
23 | Cn1ccc2cc(-c3cn4c(-c5ccc6c(c5)OCO6)cnc4cn3)ccc21 | 0.402 | IC50 (HEPG2TOX_HILL_SLOPE 0.831, HEPG2TOX_R_SQUARED 0.884, PBLUC_HILL_SLOPE 11.3, PBLUC_R_SQUARED 0.726, read-out: LUCIFERASE INFECTION ASSAY - IC50): 0.33 µM
24 | COc1ccccc1-[n+]1c(C)cc(C=C2Sc3ccc4ccccc4c3N2C)cc1C | 0.611 | IC50 (HEPG2TOX_HILL_SLOPE 0.863, HEPG2TOX_R_SQUARED 0.853, PBLUC_HILL_SLOPE 2.28, PBLUC_R_SQUARED 0.851, read-out: LUCIFERASE INFECTION ASSAY - IC50): 0.233 µM
25 | FC(F)(F)c1cccc(CNc2ncnc3sccc23)c1 | 6.39 | IC50 (HEPG2TOX_HILL_SLOPE 0.888, 1.51, HEPG2TOX_R_SQUARED 0.921, 0.862, PBLUC_HILL_SLOPE 1.26, 1.66, PBLUC_R_SQUARED 0.564, 0.617, read-out: LUCIFERASE INFECTION ASSAY - IC50): 1.42 µM
26 | O=C(c1ccc(-n2cccn2)cc1)N1CCC(n2c(=O)[nH]c3ccccc32)CC1 | > 10 | IC50 (HEPG2TOX_HILL_SLOPE 0.884, HEPG2TOX_R_SQUARED 0.19, PBLUC_HILL_SLOPE 11.8, PBLUC_R_SQUARED 0.218, read-out: LUCIFERASE INFECTION ASSAY - IC50): 9.85 µM
27 | OCc1ccc(-c2cnc3ccc(NCc4ccc(F)cc4)nn23)cc1 | 1.24 | IC50 (HEPG2TOX_HILL_SLOPE 0.86, HEPG2TOX_R_SQUARED 0.883, PBLUC_HILL_SLOPE 13, PBLUC_R_SQUARED 0.726, read-out: LUCIFERASE INFECTION ASSAY - IC50): 1.05 µM
28 | COc1ccccc1N(Cc1nc(N)nc(Nc2ccc(C)cc2)n1)S(=O)(=O)c1cccs1 | 4.3 | IC50 (HEPG2TOX_HILL_SLOPE 0.853, HEPG2TOX_R_SQUARED 0.978, PBLUC_HILL_SLOPE 2.92, PBLUC_R_SQUARED 0.627, read-out: LUCIFERASE INFECTION ASSAY - IC50): 2.03 µM
29 | COc1ccc(CNC(=O)CCOc2ccc(C(C)(C)C)cc2)cc1OC | > 10 | IC50 (HEPG2TOX_HILL_SLOPE 0.891, HEPG2TOX_R_SQUARED 0.4, PBLUC_HILL_SLOPE 0.658, PBLUC_R_SQUARED 0.48, read-out: LUCIFERASE INFECTION ASSAY - IC50): 4.6 µM
30 | O=C(Cc1cn2ccsc2n1)NNC(=O)c1cc(Cl)ccc1O | 0.414 | IC50 (HEPG2TOX_HILL_SLOPE 0.838, HEPG2TOX_R_SQUARED 0.788, PBLUC_HILL_SLOPE 20.5, PBLUC_R_SQUARED 0.865, read-out: LUCIFERASE INFECTION ASSAY - IC50): 0.372 µM
31 | CC(=O)Nc1cccc(-c2cnc3ccc(-c4cccs4)nn23)c1 | 3.37 | IC50 (HEPG2TOX_HILL_SLOPE 0.814, HEPG2TOX_R_SQUARED 0.982, PBLUC_HILL_SLOPE 1.1, PBLUC_R_SQUARED 0.75, read-out: LUCIFERASE INFECTION ASSAY - IC50): 0.461 µM
32 | CCOC(=O)Nc1nc2ccc(C(F)(F)F)cc2[nH]1 | 1.1 | IC50 (HEPG2TOX_HILL_SLOPE 0.892, HEPG2TOX_R_SQUARED 0.914, PBLUC_HILL_SLOPE 2.52, PBLUC_R_SQUARED 0.681, read-out: LUCIFERASE INFECTION ASSAY - IC50): 0.459 µM
